In patent US20250154288A1, “CYTOTOXICITY TARGETING CHIMERAS FOR C-C CHEMOKINE RECEPTOR 2-EXPRESSING CELLS” (GLAXOSMITHKLINE INTELLECTUAL PROPERTY DEVELOPMENT LIMITED, priority 2022, published 2025):

Experiments:
[1] = Blood drug concentration analysis (LC-MS/MS) in In Vivo Depletion Assay; conditions: human CCR2 (hCCR2) knock-in, 057 background, mouse, whole blood, hCCR2 knock-in mice, IV 0.1 mpk compound + 10 mpk anti-cotinine antibody, 48 hours post-dose, read-out: Exposure of Compound of Formula (I) 48 hours post-dose
[2] = molecular target: Anti-cotinine antibody (SEQ ID NO: 11 / SEQ ID NO: 12); assay: Binding of Anti-Cotinine Antibody to ARM Compounds measured by Surface Plasmon Resonance (SPR); design: species or system rabbit variable region with human IgG1 Fc domain; conditions: Biacore T200, 37° C., Kd = koff/kon, average if several runs
Procedure: Anti-cotinine antibodies having a heavy chain sequence of SEQ ID NO: 11 and a light chain sequence of SEQ ID NO: 12 (rabbit variable region with human IgG1 Fc domain containing a DE mutation (S239D/I332E)) were captured on one or more flow cells of a protein A sensor chip (Cytiva) using a Biacore T200 while reserving flow cell 1 as a reference. Following capture, a 3000 second wait step was included to reduce drift during compound analysis. ARM compounds of Formula (I) were then injected at 100 μL/min with 200 and 2000 second association and dissociation times. The entire experiment was run at 37° C. with running buffer containing 10 mM HEPES pH 7.4, 150 mM NaCl, 0.005% P20 and 1% DMSO. ARM compounds of Formula (I) were titrated with a top concentration of 200 nM using a 3-fold 5-point dilution series and a corresponding 5-injection buffer cycle was run for blank subtraction. Data were double referenced by subtracting the response of the reference flow cell from that of the antibody-containing flow cell and subsequently subtracting the referenced blank sensorgrams. Following compound analysis, the surface was regenerated using a 30 second injection of pH 1.5 glycine at a flow rate of 30 μL/min after which antibody was re-captured. The experiment was run using Biacore T200 control software and evaluated using Biacore T200 Evaluation software. Curves were fit with a 1:1 kinetic binding model to obtain kon(1/Ms), koff(1/s), Kd (M) determined as koff/kon, and residence time determined as 1/koff. (s).
Anti-cotinine antibody was tested for binding to ARMs compounds of Formula (I) of the invention in the above assay in or more experimental runs and the results are shown in Table 5 below. Affinity is reported as a pKd value. The pKd value is the negative log of the Kd value, wherein the Kd value is the dissociation constant measured in molar (M) as noted above. For compounds tested in more than one experimental run, the pKd value is reported as an average

SMILES | concentration at 48 h [1] | pKd of Antibody for ARM Compound of Formula (I) [2]
CO[C@@H]1COCC[C@@H]1N[C@@H]1CC[C@](CCNC(=O)[C@H]2CC[C@H](NC(=O)CCCO[C@H]3CC[C@H](OCCNC(=O)[C@H]4CC(=O)N(C)[C@@H]4c4cccnc4)CC3)CC2)(C(=O)N2CCc3ncc(C(F)(F)F)cc3C2)C1 [Example 8, (2S,3S)-N-(2-(((1R,4S)-4-(4-(((1R,4R)-4-((2-((1R,3R)-3-(((3S,4S)-3-Methoxytetrahydro-2H-pyran-4-yl)amino)-1-(3-(trifluoromethyl)-5,6,7,8-tetrahydro-1,6-naphthyridine-6-carbonyl)cyclopentyl)ethyl)carbamoyl)cyclohexyl)amino)-4-oxobutoxy)cyclohexyl)oxy)ethyl)-1-methyl-5-oxo-2-(pyridin-3-yl)pyrrolidine-3-carboxamide] | 74.9 ng/mL | 9.1
CO[C@@H]1COCC[C@@H]1N[C@@H]1CC[C@@](C(=O)N2CCc3nc(CCCCOc4cccc(C(=O)NCCOCCOCCOCCOCCOCCOCCOCCOCCOCCNC(=O)[C@H]5CC(=O)N(C)[C@@H]5c5cccnc5)c4)c(C(F)(F)F)cc3C2)(C(C)C)C1 [Example 22, (2S,3S)—N-(1-(3-(4-(6-((1S,3R)-1-Isopropyl-3-(((3S,4S)-3-methoxytetrahydro-2H-pyran-4-yl)amino)cyclopentane-1-carbonyl)-3-(trifluoromethyl)-5,6,7,8-tetrahydro-1,6-naphthyridin-2-yl)butoxy)phenyl)-1-oxo-5,8,11,14,17,20,23,26,29-nonaoxa-2-azahentriacontan-31-yl)-1-methyl-5-oxo-2-(pyridin-3-yl)pyrrolidine-3-carboxamide] | 15.5 ng/mL | 9.3
